Assay results from patent US6562850B1, “Methods of synthesizing sultams and anti-viral compositions” (The University of Tennessee Research Corporation, priority 1998, dated 2003).
pEC50, pIC50: −log10 of the molar value.

What was measured:
[1] = system: HIV-1; experiment: anti-HIV-1 activity, National Cancer Institute (Weislow) protocol; format: cell-based; settings: for pIC50: IC50 beside EC50 and TI50 (not further defined in the patent); for Act.: activity class as per the NCI protocol
[2] = Human immunodeficiency virus 1, NCI Weislow protocol

Compound | pIC50 ([1]; NCI Weislow protocol) | TI50 ([1]; NCI Weislow protocol, therapeutic index column) | pEC50 ([1]; anti-HIV-1 activity, NCI Weislow protocol) | pIC50 [1, 2] | Act. [1] | melting point [°C]
(R,S)-2,5-Dimethyl-3-phenyl-2,3-dihydrobenzo[d]isothiazole 1,1-dioxide [Compound 47] | 3.81 | 5.03 | 4.51 | – | – | –
CN1[C@H](c2ccc(O)cc2)c2ccccc2S1(=O)=O [Compound 22, (−)-4-[(3R)-2-Methyl-1,1-dioxo-2,3-dihydrobenzo-[d]-isothiazol-3-yl]phenol] | – | – | – | < 3.70 | I | 178 to 179
CN1[C@@H](c2ccc(O)cc2)c2ccccc2S1(=O)=O [Compound 21, (+)-4-[(3S)-2-Methyl-1,1-dioxo-2,3-dihydrobenzo[d]isothiazol-3-yl]phenol] | – | – | – | < 3.70 | I | 178 to 180
(R,S)-4-(2-Methyl-1,1-dioxo-2,3-dihydrobenzo[d]isothiazol-3-yl)phenol [Compound 20] | < 3.70 | – | – | – | I | –
